Source: patent US9302999B2, “Substituted triazoles as herbicides” (E. I. DU PONT DE NEMOURS AND COMPANY, priority 2012, dated 2016)

What was measured:
Format in all cases: in vivo
[1] = tested on: chickweed (common chickweed, Stellaria media); experiment: Test C postemergence: chickweed
How it was run: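 Visual 0–100 injury score vs untreated controls (0 none, 100 complete control), taken 13–15 d after treatment. Postemergence spray on potted plants, 2–18 cm, 1–4 leaves; greenhouse.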

[2] = tested on: pigweed (Amaranthus retroflexus); experiment: Test A pre-/postemergence: pigweed; settings: for Pigweed plant response rating: visual rating on 0 to 100 scale (0 no effect, 100 complete control), approximately ten days
How it was run: (§1)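 Rating scale 0–100 (100 = complete control), visual, ~10 days after application in the greenhouse. Applications: preemergence directed soil spray; postemergence at 1–2 leaves.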

[3] = tested on: ragweed (common ragweed, Ambrosia elation); experiment: Test C pre-/postemergence: ragweed
How it was run: (§2)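 Preemergence on seeds in loam/sand, postemergence on 2–18 cm (1–4-leaf) plants in peat-based medium; compounds in non-phytotoxic solvent with surfactant. After 13–15 days in greenhouse, visual rating versus controls, 0 (no effect) to 100 (complete control).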

[4] = tested on: foxtail, giant (giant foxtail, Setaria faberii); experiment: Test A pre-/postemergence: foxtail, giant
How it was run: as §1

[5] = tested on: wheat (Triticum aestivum); experiment: Test A pre-/postemergence: wheat; settings: for Wheat plant response rating: visual rating on 0 to 100 scale (0 no effect, 100 complete control), approximately ten days
How it was run: as §1

[6] = tested on: morningglory (Ipomoea coccinea); experiment: Test C pre-/postemergence: morningglory
How it was run: as §2

[7] = tested on: crabgrass, large (large crabgrass, Digitaria sanguinalis); experiment: Test A pre-/postemergence: crabgrass, large
How it was run: as §1

[8] = tested on: velvetleaf (Abutilon theophrasti); experiment: Test A pre-/postemergence: velvetleaf
How it was run: as §1

[9] = tested on: blackgrass (Alopecurus myosuroides); experiment: Test C pre-/postemergence: blackgrass
How it was run: as §2

[10] = tested on: barnyardgrass (Echinochloa crus-galli); experiment: Test B flooded paddy: barnyardgrass; settings: Flood; 250 g ai/ha; applied to paddy water at 2-leaf stage; visually evaluated after 13 to 15 days
How it was run: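 Visual ratings on a 0–100 scale, where 0 means no effect and 100 means complete control, were assigned by comparison with controls 13 to 15 days after treatment. Compounds went into paddy water over 2-leaf plants flooded to 3 cm.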

[11] = 31 g ai/ha, scale 0 to 100 (0 no effect, 100 complete control)
[12] = 62 g ai/ha, scale 0 to 100 (0 no effect, 100 complete control)
[13] = 125 g ai/ha, scale 0 to 100, 0 no effect, 100 complete control
[14] = Postemergence, 125 g ai/ha, 0 to 100 scale, 0 is no effect, 100 is complete control
[15] = Preemergence, 125 g ai/ha, 0 to 100 scale where 0 is no effect and 100 is complete control
[16] = Preemergence, 500 g ai/ha, 0 to 100 scale (0 no effect, 100 complete control)
[17] = Postemergence, 31 g ai/ha, scale 0 to 100 (0 no effect, 100 complete control)
[18] = Postemergence, 62 g ai/ha, scale 0 to 100 (0 no effect, 100 complete control)
[19] = Postemergence, 125 g ai/ha, scale 0 to 100, 0 no effect, 100 complete control
[20] = Postemergence, 250 g ai/ha, scale 0 to 100
[21] = Preemergence, 31 g ai/ha, scale of 0 to 100, 0 is no effect, 100 is complete control
[22] = Preemergence, 62 g ai/ha, scale of 0 to 100, 0 is no effect, 100 is complete control
[23] = Preemergence, 125 g ai/ha, scale 0 to 100, 0 no effect, 100 complete control
[24] = Preemergence, 250 g ai/ha, scale 0 to 100, 0 no effect, 100 complete control
[25] = Postemergence, 500 g ai/ha, visual rating on 0 to 100 scale (0 no effect, 100 complete control), approximately ten days

Compound: Cc1nn(-c2ccc(C(F)(F)F)c(F)c2)nc1Oc1ccnc(C(F)(F)F)c1 [Compound 148]
- Plant response rating, Chickweed [1, 11]: 75
- Plant response rating, Chickweed [1, 12]: 75
- Plant response rating, Chickweed [1, 13]: 90
- Plant response rating, Chickweed ([1]; 250 g ai/ha, scale 0 to 100): 98
- Plant response rating, Pigweed [2, 14]: 100
- Pigweed plant response rating ([2]; Postemergence, 500 g ai/ha): 100
- Plant response rating, Pigweed [2, 15]: 100
- Plant response rating, Pigweed [2, 16]: 100
- Plant response rating, Ragweed [3, 17]: 65
- Plant response rating, Ragweed [3, 18]: 85
- Plant response rating, Ragweed [3, 19]: 85
- Plant response rating, Ragweed [3, 20]: 85
- Plant response rating, Ragweed [3, 21]: 15
- Plant response rating, Ragweed [3, 22]: 45
- Plant response rating, Ragweed [3, 23]: 55
- Plant response rating, Ragweed [3, 24]: 70
- Foxtail, Giant plant response rating [4, 14]: 80
- Foxtail, Giant plant response rating [4, 25]: 80
- Plant response rating, Foxtail, Giant [4, 15]: 100
- Plant response rating, Foxtail, Giant [4, 16]: 100
- Plant response rating, Wheat [5, 14]: 20
- Wheat plant response rating ([5]; Postemergence, 500 g ai/ha): 40
- Plant response rating, Wheat [5, 15]: 30
- Plant response rating, Wheat [5, 16]: 50
- Plant response rating, Morningglory [6, 17]: 70
- Plant response rating, Morningglory [6, 18]: 98
- Plant response rating, Morningglory [6, 19]: 98
- Plant response rating, Morningglory [6, 20]: 98
- Plant response rating, Morningglory [6, 21]: 20
- Plant response rating, Morningglory [6, 22]: 20
- Plant response rating, Morningglory [6, 23]: 55
- Plant response rating, Morningglory [6, 24]: 75
- Crabgrass, Large plant response rating [7, 14]: 80
- Crabgrass, Large plant response rating [7, 25]: 80
- Plant response rating, Crabgrass, Large [7, 15]: 100
- Plant response rating, Crabgrass, Large [7, 16]: 100
- Plant response rating, Velvetleaf [8, 14]: 100
- Plant response rating, Velvetleaf [8, 15]: 20
- Plant response rating, Velvetleaf [8, 16]: 70
- Plant response rating, Blackgrass [9, 17]: 40
- Plant response rating, Blackgrass [9, 18]: 50
- Plant response rating, Blackgrass [9, 19]: 70
- Plant response rating, Blackgrass [9, 20]: 80
- Plant response rating, Blackgrass [9, 21]: 60
- Plant response rating, Blackgrass [9, 22]: 85
- Plant response rating, Blackgrass [9, 23]: 90
- Plant response rating, Blackgrass [9, 24]: 90
- Plant response rating, Barnyardgrass (0 to 100 scale, 0 is no effect, 100 is complete control) [10]: 65

Compound: CCc1nn(-c2ccc(F)cc2)nc1Cc1ccnc(C(F)(F)F)c1 [Compound 154]
- Plant response rating, Chickweed [1, 11]: 85
- Plant response rating, Chickweed [1, 12]: 85
- Plant response rating, Chickweed [1, 13]: 95
- Plant response rating, Chickweed ([1]; 250 g ai/ha, scale 0 to 100): 95
- Plant response rating, Pigweed [2, 14]: 100
- Pigweed plant response rating ([2]; Postemergence, 500 g ai/ha): 100
- Plant response rating, Pigweed [2, 15]: 100
- Plant response rating, Pigweed [2, 16]: 100
- Plant response rating, Ragweed [3, 17]: 30
- Plant response rating, Ragweed [3, 18]: 30
- Plant response rating, Ragweed [3, 19]: 30
- Plant response rating, Ragweed [3, 20]: 40
- Plant response rating, Ragweed [3, 21]: 0
- Plant response rating, Ragweed [3, 22]: 0
- Plant response rating, Ragweed [3, 23]: 50
- Plant response rating, Ragweed [3, 24]: 70
- Plant response rating, Foxtail, Giant [4, 14]: 90
- Foxtail, Giant plant response rating [4, 25]: 100
- Plant response rating, Foxtail, Giant [4, 15]: 100
- Plant response rating, Foxtail, Giant [4, 16]: 100
- Plant response rating, Wheat [5, 14]: 20
- Wheat plant response rating ([5]; Postemergence, 500 g ai/ha): 50
- Plant response rating, Wheat [5, 15]: 0
- Plant response rating, Wheat [5, 16]: 20
- Plant response rating, Morningglory [6, 17]: 40
- Plant response rating, Morningglory [6, 18]: 75
- Plant response rating, Morningglory [6, 19]: 75
- Plant response rating, Morningglory [6, 20]: 98
- Plant response rating, Morningglory [6, 21]: 0
- Plant response rating, Morningglory [6, 22]: 5
- Plant response rating, Morningglory [6, 23]: 5
- Plant response rating, Morningglory [6, 24]: 25
- Plant response rating, Crabgrass, Large [7, 14]: 100
- Crabgrass, Large plant response rating [7, 25]: 100
- Plant response rating, Crabgrass, Large [7, 15]: 100
- Plant response rating, Crabgrass, Large [7, 16]: 100
- Plant response rating, Velvetleaf [8, 14]: 100
- Velvetleaf plant response rating [8, 25]: 100
- Plant response rating, Velvetleaf [8, 15]: 30
- Plant response rating, Velvetleaf [8, 16]: 70
- Plant response rating, Blackgrass [9, 17]: 15
- Plant response rating, Blackgrass [9, 18]: 35
- Plant response rating, Blackgrass [9, 19]: 55
- Plant response rating, Blackgrass [9, 20]: 70
- Plant response rating, Blackgrass [9, 21]: 90
- Plant response rating, Blackgrass [9, 22]: 90
- Plant response rating, Blackgrass [9, 23]: 90
- Plant response rating, Blackgrass [9, 24]: 90
- Plant response rating, Barnyardgrass (0 to 100 scale, 0 is no effect, 100 is complete control) [10]: 60
